In patent US12077503B2, “Substituted cyclic amides and their use as herbicides” (FMC CORPORATION, priority 2015, dated 2024):

Assays:
Test in all cases: Test G Post-Emergence Protocol
Format in all cases: in vivo
corn (Zea mays) = system: corn (Zea mays)
Procedure: (§1) Seeds of corn (Zea mays), giant foxtail (Setaria faberi), barnyardgrass (Echinochloa crus-galli), ivy-leaved morning glory (Ipomoea hederacea), redroot pigweed (Amaranthus retroflexus) and velvetleaf (Abutilon theophrasti) were sown in standard soil in pots. After cultivation for 8 days under controlled conditions in a glasshouse (at 24/16° C., day/night; 14 hours light; 65% humidity), the plants were sprayed with an aqueous spray solution derived from the formulation of the technical active ingredient in acetone/water (50:50) solution containing 0.5% Tween 20 (polyoxyethylene sorbitan monolaurate, CAS RN 9005-64-5) to give a final dose of 15.625, 62.5 or 250 g/ha of test compound.
(§2) The test plants were then grown on under controlled conditions in a glasshouse (at 24/16° C., day/night; 14 hours light; 65% humidity) and watered twice daily. After 13 days the test was evaluated (100=total damage to plant; 0=no damage to plant). A dash (-) means no test result.

[1] = system: giant foxtail (Setaria faberi)
Procedure: as §1, §2

[2] = system: ivy-leaved morning glory (Ipomoea hederacea)
Procedure: as §1, §2

[3] = system: redroot pigweed (Amaranthus retroflexus)
Procedure: as §1, §2

[4] = system: velvetleaf (Abutilon theophrasti)
Procedure: as §1, §2

[5] = 15.625 g ai/ha, evaluated after 13 days (100=total damage to plant; 0=no damage to plant)
[6] = 62.5 g ai/ha, evaluated after 13 days
[7] = 250 g ai/ha, evaluated after 13 days

CN1C[C@H](c2cccc(C(F)(F)F)c2)[C@@H](C(=O)Nc2cccnc2F)C1=O [Compound 1397]
plant injury at 15.625 g/ha (corn (Zea mays); Zea mays, post-emergence, 312 h, 15.625 g ai/ha, evaluated after 13 days (100=total damage to plant; 0=no damage to plant), read-out: Corn damage rating): 80%
plant injury at 62.5 g/ha (corn (Zea mays); Zea mays, post-emergence, 312 h, 62.5 g ai/ha, evaluated after 13 days, read-out: Corn damage rating (100=total damage to plant; 0=no damage to plant)): 80%
plant injury at 250 g/ha (corn (Zea mays); Zea mays, post-emergence, 312 h, 250 g ai/ha, evaluated after 13 days, read-out: damage to plant, Corn (100=total damage to plant; 0=no damage to plant)): 80%
pest or weed control at 15.625 g/ha ([1]; Setaria faberi, post-emergence, 312 h, 15.625 g ai/ha, evaluated after 13 days (100=total damage to plant; 0=no damage to plant), read-out: Foxtail, Giant damage rating): 80%
pest or weed control at 62.5 g/ha ([1]; Setaria faberi, post-emergence, 312 h, 62.5 g ai/ha, evaluated after 13 days, read-out: Foxtail, Giant damage rating (100=total damage to plant; 0=no damage to plant)): 80%
pest or weed control at 250 g/ha ([1]; Setaria faberi, post-emergence, 312 h, 250 g ai/ha, evaluated after 13 days, read-out: damage to plant, Foxtail, Giant (100=total damage to plant; 0=no damage to plant)): 80%
pest or weed control at 15.625 g/ha ([2]; Ipomoea, post-emergence, 312 h, 15.625 g ai/ha, evaluated after 13 days (100=total damage to plant; 0=no damage to plant), read-out: Morningglory, Ivy-leaved damage rating): 60%
pest or weed control at 62.5 g/ha ([2]; Ipomoea, post-emergence, 312 h, 62.5 g ai/ha, evaluated after 13 days, read-out: Morningglory, Ivy-leaved damage rating (100=total damage to plant; 0=no damage to plant)): 60%
pest or weed control at 250 g/ha ([2]; Ipomoea, post-emergence, 312 h, 250 g ai/ha, evaluated after 13 days, read-out: damage to plant, Morningglory, Ivy-leaved (100=total damage to plant; 0=no damage to plant)): 70%
pest or weed control at 15.625 g/ha ([3]; Amaranthus retroflexus, post-emergence, 312 h, 15.625 g ai/ha, evaluated after 13 days (100=total damage to plant; 0=no damage to plant), read-out: Pigweed, Redroot damage rating): 0%
pest or weed control at 62.5 g/ha ([3]; Amaranthus retroflexus, post-emergence, 312 h, 62.5 g ai/ha, evaluated after 13 days, read-out: Pigweed, Redroot damage rating (100=total damage to plant; 0=no damage to plant)): 30%
pest or weed control at 250 g/ha ([3]; Amaranthus retroflexus, post-emergence, 312 h, 250 g ai/ha, evaluated after 13 days, read-out: damage to plant, Pigweed, Redroot (100=total damage to plant; 0=no damage to plant)): 60%
pest or weed control at 15.625 g/ha ([4]; Abutilon theophrasti, post-emergence, 312 h, 15.625 g ai/ha, evaluated after 13 days (100=total damage to plant; 0=no damage to plant), read-out: Velvetleaf damage rating): 0%
pest or weed control at 62.5 g/ha ([4]; Abutilon theophrasti, post-emergence, 312 h, 62.5 g ai/ha, evaluated after 13 days, read-out: Velvetleaf damage rating (100=total damage to plant; 0=no damage to plant)): 10%
pest or weed control at 250 g/ha ([4]; Abutilon theophrasti, post-emergence, 312 h, 250 g ai/ha, evaluated after 13 days, read-out: damage to plant, Velvetleaf (100=total damage to plant; 0=no damage to plant)): 40%

CN1C[C@H](c2ccc(C(F)(F)F)cc2)[C@@H](C(=O)Nc2cccc(F)n2)C1=O [Compound 1400]
Corn damage rating (corn (Zea mays); [5]): 10
Corn damage rating (100=total damage to plant; 0=no damage to plant) (corn (Zea mays); [6]): 20
damage to plant, Corn (100=total damage to plant; 0=no damage to plant) (corn (Zea mays); [7]): 60
Foxtail, Giant damage rating [1, 5]: 60
Foxtail, Giant damage rating (100=total damage to plant; 0=no damage to plant) [1, 6]: 70
damage to plant, Foxtail, Giant (100=total damage to plant; 0=no damage to plant) [1, 7]: 70
Morningglory, Ivy-leaved damage rating [2, 5]: 0
Morningglory, Ivy-leaved damage rating (100=total damage to plant; 0=no damage to plant) [2, 6]: 0
damage to plant, Morningglory, Ivy-leaved (100=total damage to plant; 0=no damage to plant) [2, 7]: 0
Pigweed, Redroot damage rating [3, 5]: 20
Pigweed, Redroot damage rating (100=total damage to plant; 0=no damage to plant) [3, 6]: 50
damage to plant, Pigweed, Redroot (100=total damage to plant; 0=no damage to plant) [3, 7]: 60
Velvetleaf damage rating [4, 5]: 10
Velvetleaf damage rating (100=total damage to plant; 0=no damage to plant) [4, 6]: 10
damage to plant, Velvetleaf (100=total damage to plant; 0=no damage to plant) [4, 7]: 30
